Patent publication US5153352A, “Process for preparation of intermediates of carbocyclic nucleoside analogs” (priority 1990, dated 1992)
In brackets after ≈: the same amount, converted by molar mass.

Assays:
[1] = tested on: Human Immunodeficiency Virus (HIV-1); test: anti-HIV-1 protection of ATH8 cells (method of Mitsuya and Broder); format: cell-based; conditions: Human immunodeficiency virus 1, ATH-8, HIV-1, ATH8 cells, read-out: Protective Effect
Excerpt: The method of Mitsuya and Broder (AIDS: Modern Concepts and Therapeutic Challenges; Broder, S. ED.; Marcel Dekker, Inc.; New York, 1987; Chapter 18) was used to determine the in vitro anti-HIV-1 and anti-HIV-2 activity in ATH8 cells of some compounds of the invention. The results of the test are expressed as the percentage of ATH8 cells that were protected from the cytopathogenic effects of HIV at various concentrations of the compound of the invention.

[2] = tested on: HCT8: Adenocarcinoma, ileocecal; test: cytotoxic activity against cultured tumor cells, HCT-8; format: cell-based; conditions: Homo sapiens, 72 h; HCT-8, 3 days, MTT
HSV-1(E-377) = test: plaque reduction, HSV-1(E-377) in Vero cells; format: cell-based, Herpes simplex virus type 1; conditions: Human alphaherpesvirus 1, plaque reduction 50%, read-out: MIC50
Experimental: (§1) After the adsorption period, the infected cell monolayers were treated in duplicate with serial dilutions of the test compound. Duplicate cell controls containing medium alone and virus controls containing medium and virus were run simultaneously with the test compound. […] Plaques visible to the unaided eye were counted and the mean number of plaques in the duplicate wells for each compound concentration tested and for the untreated, virus infected controls were determined.

[3] = tested on: Human Immunodificiency Virus (HIV-1); test: inhibition of HIV-1 replication in human PBMC (RT activity); format: cell-based; conditions: Human immunodeficiency virus 1; HIV-1, PBMC, median-effect method
Experimental: Human peripheral blood mononuclear cells (PBMC) from healthy HIV-1 seronegative and hepatitis B virus seroneqative donors were isolated by Ficoll-Hypague discontinuous gradient centrifugation at 1,000×g for 30 minutes, washed twice in phosphate buffered saline (pH 7.2; PBS), and pelleted at 300×g for 10 minutes. Before infection, the cells were stimulated by phytohemagglutinin (PHA) at a concentration of 16.7 ug/ml for three days in RPMI 1640 medium supplemented with 15% heat-inactivated fetal calf serum, 1.5 mM L-glutamine, penicillin (100 U/ml), streptomycin (100 ug/ml) and 4 mM sodium bicarbonate buffer.
Uninfected PHA stimulated human PBMC were uniformly distributed among 25 cm^2 flasks to give a 5 ml suspension containing about 2×10^6 cells/ml. Suitable dilutions of virus were added to infect the cultures. The mean reverse transcriptase (RT) activity of the inocula was 60,000 dpm RT activity/10^6 cells. […]
The RT assay was perfromed in 96-well microtiter plates as described by Spira, et al. (J. Clin. Microbiol. 25 97 (1987)). […] Four ml of scintillation fluid (Econofluor, NEN Research Products, Boston, Ma.) were added and the amount of radioactivity in each sample was determined using a Packard Tri Carb liquid scintillation analyzer (model 2,000CA). […]

mice = test: toxicity in uninfected mice (Herpesvirus 1 study); format: in vivo, mouse; conditions: 7 doses
Experimental: (§2) Four-week-old female outbred Swiss mice (CD 1, VAF+, Charles River Labs) were housed 5 per Microisolator® cage. Feed and water were supplied ad libitum. Fifteen mice were randomly assigned to each of the following treatment groups:
(§3) Test compounds were diluted in 0.4% carboxymethylcellulose (CMC) prepared in phosphate buffered saline (PBS) at concentrations consistent with dosing at 0.1 ml per 10 q of body weight. Compounds were administered subcutaneously once daily for a total of 7 doses. Five mice in each treatment group served as uninfected toxicity controls. The remaining ten mice in each group were challenged intraperitoneally with an LD90 dose of the twelfth in vivo passage of Herpesvirus 1 (strain 123). Virus challenge was administered two hours after the first dose of compound was given. Mortality was monitored daily for 21 days. The mortality rates, average day of death, geometric mean time to death and virus rating were calculated for each treatment group.

HSV-1(123) = test: plaque reduction, HSV-1(123) in Vero cells; format: cell-based, Herpes simplex virus type 1; conditions: Human alphaherpesvirus 1, plaque reduction 50%, read-out: MIC50
Experimental: as §1

Epstein-Barr virus (EBV) = test: EBV genome copies in virus producing cells (P3HR-1); format: cell-based; conditions: P3HR-1 cells, 14 days, control 214
Experimental: Virus producing cells (P3HR-1) were exposed to test compound for 14 days and EBV genome copies per cell were determined by EBV specific cRNA DNA hybridization (Lin, et al., J. Virology 50 50-55 (1984). The results of this test are presented in Table 7.

Herpesvirus 1 = test: in vivo activity against intraperitoneal Herpesvirus 1 challenge in mice; design: species or system mouse infected with Herpesvirus 1 (strain 123); conditions: for No. Dead/No. Infected: 7 doses; for GMTD (geometric mean time to death): monitored daily for 21 days
Experimental: as §2
2. diluent (0.4% CMC/PBS controls)
3. 100 mg/kg test compound
4. 32 mg/kg test compound
5. 10 mg/kg test compound
6. 3.2 mg/kg test compound
as §3

How did the inhibition at 1 µM [1] turn out when `Nc1nc2c(ncn2C2CC(CO)C2CO)c(=O)[nH]1` (stereo not shown) [Example 1I, 9-(2',3'-Bis(hydroxymethyl)cyclobutyl)guanine] was run?
The inhibition at 1 µM was 51%.

And the inhibition at 10 µM [1]?
Its inhibition at 10 µM is 90%.

And the IC50 [2]?
Its IC50 is over 100 µg/mL.

What about the EC50 (HSV-1(E-377)) of the same compound?
The EC50 was 0.5 µg/mL (≈ 1.88 µM).

And the EC50 [3]?
The EC50 was 0.98 µM.

What about the “No. Dead/No. Uninfected” value (mice; 3.2 mg/kg s.c. once daily) of the same compound?
Its value is 0/5.

And the “No. Dead/No. Uninfected” value (mice; 10 mg/kg s.c. once daily)?
Its value is 0/5.

And the “No. Dead/No. Uninfected” value (mice; 32 mg/kg s.c. once daily)?
Its value is 0/3.

What about the EC50 (HSV-1(123)) of the same compound?
Its EC50 is 1 µg/mL (≈ 3.77 µM).

What about the EBV genome copies/cell (Epstein-Barr virus (EBV); 0.01 uM) of the same compound?
The EBV genome copies/cell was 223 EBV genome copies/cell.

And the EBV genome copies/cell (Epstein-Barr virus (EBV); 0.10 uM)?
Its EBV genome copies/cell is 181 EBV genome copies/cell.

And the EBV genome copies/cell (Epstein-Barr virus (EBV); 1.00 uM)?
Its EBV genome copies/cell is 40 EBV genome copies/cell.

What about the EBV genome copies/cell (Epstein-Barr virus (EBV); 5.00 uM) of the same compound?
Its EBV genome copies/cell is 12 EBV genome copies/cell.

What about the EBV genome copies/cell (Epstein-Barr virus (EBV); 10.00 uM) of the same compound?
The EBV genome copies/cell was 10 EBV genome copies/cell.

And the “VR (virus rating, GMTD of experimental/GMTD of diluent-treated control)” value (Herpesvirus 1; 3.2 mg/kg s.c.)?
The value was 1.3.

What about the “No. Dead/No. Infected” value (Herpesvirus 1; 3.2 mg/kg s.c. once daily) of the same compound?
The value was 8/10.

What about the “GMTD (geometric mean time to death)” value (Herpesvirus 1; 3.2 mg/kg s.c.) of the same compound?
Its value is 10.8.

What about the “VR (virus rating, GMTD of experimental/GMTD of diluent-treated control)” value (Herpesvirus 1; 10 mg/kg s.c.) of the same compound?
The value was 1.6.

And the “No. Dead/No. Infected” value (Herpesvirus 1; 10 mg/kg s.c. once daily)?
Its value is 5/10.

What about the “GMTD (geometric mean time to death)” value (Herpesvirus 1; 10 mg/kg s.c.) of the same compound?
Its value is 13.0.

And the “VR (virus rating, GMTD of experimental/GMTD of diluent-treated control)” value (Herpesvirus 1; 32 mg/kg s.c.)?
Its value is 2.5.

What about the “No. Dead/No. Infected” value (Herpesvirus 1; 32 mg/kg s.c. once daily) of the same compound?
The value was 0/10.

What about the “GMTD (geometric mean time to death)” value (Herpesvirus 1; 32 mg/kg s.c.) of the same compound?
The value was 21.0.

For `Nc1ncnc2c1ncn2C1CC(CO)C1CO` (stereo not shown) [Example 4C, 9-(2',3'-Bis(hydroxymethyl)cyclobutyl)adenine], which inhibition at 1 µM [1] is on record?
Its inhibition at 1 µM is 48%.

And the inhibition at 10 µM [1]?
Its inhibition at 10 µM is 63%.

What about the inhibition at 100 µM ([1]; 100 uM) of the same compound?
Its inhibition at 100 µM is 76%.

And the IC50 [2]?
Its IC50 is 71.4 µg/mL (≈ 286 µM).

And the EC50 [3]?
The EC50 was 0.96 µM.
